# Assay results published in patent US8779157B2, “MGLUR4 allosteric potentiators, compositions, and methods of treating neurological dysfunction” (Vanderbilt University, priority 2009, dated 2014).
# Biological target: mGluR4 (UniProt Q14833)
# Assay: mGluR4 potentiation assay (fluorescence, Ca2+ or thallium/GIRK readout; EC20 agonist)
# Type: cell-based, human / rat
# Settings: half maximal effective concentration for mGluR4 potentiation; species of receptor not given
# Outline: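 Human mGluR4 in CHO cells (Ca2+ dye) or rat mGluR4 with GIRK in HEK cells (thallium dye), read kinetically. Potentiation EC50 and maximum fitted from compound concentration-response at fixed agonist.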
row,EC50 [µM],SMILES
1,0.743,"O=C(Nc1ccc(N2C(=O)NC(C3CCCCC3)C2=O)c(Cl)c1)c1ccccn1 (stereo not drawn) [Example 1.3.70, N-(3-chloro-4-(4-cyclohexyl-2,5-dioxoimidazolidin-1-yl)phenyl)picolinamide]"
2,1.49,"O=C(Nc1ccc(N2C(=O)C3COCCN3C2=S)c(Cl)c1)c1cccc(Cl)n1 (stereo not drawn) [Example 1.3.32, 6-Chloro N-(3-chloro-4-(1-oxo-3-thioxodihydro-1H-imidazo[5,1-c][1,4]oxazin-2(3H,8H, 8aH)-yl)phenyl)picolinamide]"
3,1.91,"CC12CCCCN1C(=S)N(c1ccc(NC(=O)c3cnccn3)cc1Cl)C2=O (stereo not drawn) [Example 1.3.92, N-(3-chloro-4-(8a-methyl-1-oxo-3-thioxohexahydroimidazo[1,5-a]pyridin-2(3H)-yl)phenyl)pyrazine-2-carboxamide]"
4,1.5,"CC(C)C[C@@]1(C)NC(=O)N(c2ccc(NC(=O)c3ccccn3)cc2Cl)C1=O [Example 1.3.17, (R)-N-(3-chloro-4-(4-isobutyl-4-methyl-2,5-dioxoimidazolidin-1-yl)phenyl)picolinamide]"
5,4.71,"CS(=O)(=O)N1CCN2C(=O)N(c3ccc(NC(=O)c4ccccn4)cc3Cl)C(=O)C2C1 (stereo not drawn) [Example 1.3.47, N-(3-chloro-4-(7-(methylsulfonyl)-1,3-dioxotetrahydroimidazo[1,5-a]pyrazin-2(1H,3H,5H)-yl)phenyl)picolinamide]"
6,0.335,"C[C@@]1(Cc2ccc(F)cc2)NC(=O)N(c2ccc(NC(=O)c3ccccn3)cc2Cl)C1=O [Example 1.3.61, (S)-N-(3-chloro-4-(4-(4-fluorobenzyl)-4-methyl-2,5-dioxoimidazolidin-1-yl)phenyl)picolinamide]"
7,1.98,"O=C(Nc1ccc(N2C(=O)C3CCCCN3C2=O)c(Cl)c1)c1cscn1 (stereo not drawn) [Example 1.3.5, N-(3-Chloro-4-(1,3-dioxotetrahydroimidazo[1,5-a]pyridin-2(1H,3H,5H)-yl)phenyl)thiazole-4-carboxamide]"
8,1.04,"COc1cc(NC(=O)c2ccccn2)ccc1N1C(=O)N[C@@](C)(Cc2ccc(F)cc2)C1=O [Example 1.3.63, (S)-N-(4-(4-(4-fluorobenzyl)-4-methyl-2,5-dioxoimidazolidin-1-yl)-3-methoxyphenyl)picolinamide]"
9,0.864,"CC12CCCCN1C(=O)N(c1ccc(NC(=O)c3cccc(Cl)n3)cc1Cl)C2=O (stereo not drawn) [Example 1.3.85, 6-chloro-N-(3-chloro-4-(8a-methyl-1,3-dioxohexahydroimidazo[1,5-a]pyridin-2(3H)-yl)phenyl)picolinamide]"
